Source: US10119972B2, “Reactive labelling compounds and uses thereof” (Academia Sinica, priority 2014, dated 2018)
Entries after “also recorded” stand apart in the source; their conditions may differ.

Experiments:
CL1-5 cells = assay: Dual fluorescence labeling in cells (SPAAC with CuAAC), confocal microscopy; type: cell-based; conditions: CL1-5 cells with Ac4ManNAl and Ac4GlcNAz; 100 μM coumOCT, 0.1 μM AzBOCEt
Procedure: A dual-labeling experiment was performed using SPAAC in combination with CuAAC for the concurrent fluorescence labeling of two different metabolically incorporated glycoconjugates. Peracetylated N-acetylmannosamine (Ac4ManNAc) and peracetylated N-acetylglucosamine (Ac4GlcNAc) were employed as the control sugars. ManNAc is converted metabolically to sialic acid that is found as a terminal monosaccharide of glycoproteins and glycolipids in cell, whereas GlcNAz is an internal monosaccharide that abundant in the N- and O-linked glycans produced in the endoplasmic reticulum and Golgi. CL1-5 cells were incubated in the presence of both alkyne-containing sugar (Ac4ManNAl) and azido-containing sugar (Ac4GlcNAz) for three days. The cells were stained by SPAAC with coumOCT (for azido sugars), followed by CuAAC with AzBOCEt^6j (for alkynyl sugars), and investigated by confocal microscopy (FIG. 24).
(A) Illustration of the cell labeling experiments using Ac4ManNAl, Ac4GlcNAz, 101 and AzBOCEt. CL1-5 cells were incubated with 100 μM of Ac4ManNAl and Ac4GlcNAz or control sugars (Ac4ManNAc and Ac4GlcNAc) for 3 days, which were treated with 100 μM of probe 101 for 0.5 h under SPAAC conditions, and then incubated with 0.1 μM of AzBOCEt for 1 h under CuAAC conditions. (B) Dual fluorescence imaging in CL1-5 cells. […]

[1] = Stability in presence of 3-mercaptopropionic acid by 1H-NMR; type: physicochemical; conditions: 25 mM in CDCl3 with 3-mercaptopropionic acid (32 mM), 25° C., 24 h
Procedure: A potential problematic side reaction of cyclooctynes is the addition with proteinic or endogenous thiols to the corresponding vinyl sulfides. To test whether potential non-specific stainings of 101 and the corresponding triazole 111 may occur due to additions of the SH groups to the triple bond or double bond by proteinic or endogenous thiols, the experiment was performed by incubation of 101 and 111 with 3-mercaptopropionic acid in CDCl3 (FIGS. 25 and 26).
A solution of compound 101 and compound 111 (25 mM in CDCl3) was incubated with a solution of 3-mercaptopropionic acid (32 mM in CDCl3) at room temperature (25° C.).
FIG. 25 show ^1H-NMR spectrum in CDCl3 of compound 101 and 3-mercaptopropionic acid alone, and ^1H-NMR spectrum of compound 101 was treated with 3-mercaptopropionic acid at 25° C. for 0 h, 2 h and 24 h.

[2] = Absorption and fluorescence spectroscopy under simulated physiological conditions; type: physicochemical; conditions: for Absorption (λmax, nm) / Stokes shift / Emission (λmax, nm) / ε (M^−1cm^−1), extinction coefficient / Φf, fluorescence quantum yield: PBS buffer containing 10% DMSO, pH 7.4; for Emission (λmax, nm): excitation at 330 nm; for ε (M^−1cm^−1), extinction coefficient: measured at 330 nm; for Φf, fluorescence quantum yield: quinine sulfate (Φf = 0.54 ± 0.03) as standard; for increase in quantum yield compared to unreacted 101: triazole product vs 101
Procedure: Formation of triazoles 111 and 112 were accompanied by a significant increase in fluorescence intensity with a large Stokes shift into a standard range for coumarin emission (FIG. 16a).
FIG. 16 describes (a) Absorption and Fluorescence emission spectra (λex=330 nm) of 101 (black), 111 (blue) and 112 (red) (45 μM, PBS buffer containing 10% DMSO, pH 7.4). (b) Time course of normalized fluorescence intensity at 435 nm (λex=330 nm) for the ligation reaction of 101 (30 μM) with N-azidoacetylmannosamine (30 μM) in PBS buffer containing 10% DMSO.

thiol-yne or thiol-ene addition / stability in the presence of thiols [1] | Absorption (λmax, nm) [2] [nm] | Stokes shift [2] [cm⁻¹] | Emission (λmax, nm) [2] [nm] | ε (M^−1cm^−1), extinction coefficient [2] [M⁻¹ cm⁻¹] | Φf, fluorescence quantum yield [2] | increase in quantum yield compared to unreacted 101 [2] [fold] | Structure (SMILES) | localization of labeled glycoconjugates (CL1-5 cells)
 |  |  |  |  |  |  | CCOC(=O)C1=C(C)C2=C(c3cc(N=[N+]=[N-])ccc3OC)c3c(C)c(C(=O)OCC)c(C)n3[B-](F)(F)[N+]2=C1C [Az10, 8-(5-Azido-2-methoxyphenyl)-2,6-diethoxycarbonyl-4,4-difluoro-1,3,5,7-tetramethyl-4-bora-3a,4a-diaza-s-indacene] | observed clearly on the cell surface and partially in the cytosol
inactive; also recorded: high stability | 328 | 7500 | 435 | 12200 | 0.23 | 20 | O=c1ccc2cc3c(cc2o1)-c1nnn(Cc2ccccc2)c1CCCC3 [Compound 111, 10-Benzyl-6,7,8,9-tetrahydro-cyclooctatriazolo[5,4-g]chromen-2(2H)-one] | 
 | 330 | 7320 | 435 | 10800 | 0.21 | 20 | O=C(Cn1nnc2c1CCCCc1cc3ccc(=O)oc3cc1-2)NC1C(O)OC(CO)[C@@H](O)C1O (stereo partly drawn) [Compound 112, N-[2-(11-Oxo-4,6,7,11-tetrahydrochromeno[7′,6′:3,4]cycloocta[1,2-d][1,2,3]triazol-3(5H)-yl)]acetamido-2-deoxy-α,β-D-mannopyranose] | 
